Holding throughout (test): NCI anticancer screen, dose series, 48 h
Assay [1] deals with 786-0.
Assay [2] deals with ACHN.
The test system of assay [3] is CAKI-1.
Assay [4] has as its system DU-145.
Assay [5] relates to HL-60.
In assay [6] the test system is HOP-92.
Assay [7] deals with KM12.
In assay [8] the test system is MDA-MB-435.
Assay [9] deals with MDA-N.
The test system of assay [10] is Malme-3M.
For assay [11], the system named is NCI-H522.
The subject of assay [12] is NCI/ADR-RES.
In assay [13] the test system is PC-3.
For assay [14], the system named is SK-OV-3.
For assay [15], the system named is TK-10.
Assay [16] deals with A498.

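Assay format: 96-well plates, 48-hour exposure. GI50 = concentration required for 50% inhibition of growth.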 The source made the active and inactive calls. Rule as the data show it: active = GI50 up to about 1.1 µM and inactive = higher.

Regarding `Cc1cccc(/C=C2\CCCc3ccccc3C2=O)c1`, the GI50 in assay [1] is 32.1 µM (inactive); in [2], 26.5 µM (inactive); in assay [3] it was 30.4 µM (inactive); in [4] it was 28.6 µM (inactive); in [5], 12.1 µM (inactive); in [6] it was 15 µM (inactive). Moreover, the GI50 was 13.4 µM (inactive) in [7]; 17 µM (inactive) in assay [8]; 19.8 µM (inactive) in assay [9]; 18.1 µM (inactive) in assay [10]; 12.7 µM (inactive) in assay [11]; 22.4 µM (inactive) in assay [12]. The values for the GI50 in [13], in [14] and in [15] were 27.2 µM (inactive), 62.4 µM (inactive) and 27.4 µM (inactive), respectively.
With `CN(O)C(=O)CCCC(=O)NCC(C)(C)CNC(=O)CCCC(=O)N(C)O`, the GI50 in assay [16], in assay [2], in assay [3], in assay [4], in [5] and in assay [6] was > 100 µM (inactive) each time. The GI50 in [7], in [8], in assay [9], in assay [10], in assay [12] and in [13] was > 100 µM (inactive) in each case. Besides, the GI50 in assay [14] and in assay [15] was > 100 µM (inactive) each time.
On to `CCOC(=O)c1cc2c([N+](=O)[O-])c(NC(C)=O)ccc2s1`, for which the GI50 in assay [1] is 62.8 µM (inactive); in [16], 29.9 µM (inactive); in [2] it was 41.7 µM (inactive); in [3], 41.6 µM (inactive); in [4], 49 µM (inactive); in [5], 31.7 µM (inactive). Moreover, the GI50 is 44.8 µM (inactive) in assay [6]; 74.8 µM (inactive) in assay [7]; 76.4 µM (inactive) in assay [8]; 81.8 µM (inactive) in assay [9]; 28.2 µM (inactive) in assay [10]; 34.2 µM (inactive) in [11]. Also, the GI50 was 55.2 µM (inactive) in assay [12], 33.5 µM (inactive) in assay [13], > 100 µM (inactive) in assay [14] and > 100 µM (inactive) in assay [15].
For the compound `C=CCn1c(=O)ccn(COCCO)c1=O`, the GI50 in [16], in assay [2], in [3], in assay [4], in [5] and in [6] was > 100 µM (inactive) throughout. For the same compound, the GI50 in [7], in [8], in assay [9], in assay [10], in assay [11] and in assay [12] was > 100 µM (inactive) throughout. Also, the GI50 in assay [13] and in assay [15] was > 100 µM (inactive) in each case.
For the compound `C=CCN1C(=O)/C(=C/c2ccc(OC)cc2)NC1=S`, the GI50 in [1] was > 100 µM (inactive); in assay [16], 60.4 µM (inactive); in [2], > 100 µM (inactive); in assay [3], > 100 µM (inactive); in assay [4], > 100 µM (inactive); in assay [5], 0.0355 µM (active). The GI50 is 14.5 µM (inactive) in [6]; 97.7 µM (inactive) in [7]; 57.3 µM (inactive) in assay [8]; 33.8 µM (inactive) in assay [9]; 41.6 µM (inactive) in [11]; > 100 µM (inactive) in [12]. The values for the GI50 in assay [13], in assay [14] and in [15] were 84.5 µM (inactive), > 100 µM (inactive) and > 100 µM (inactive), respectively.
Take `CC1CC(NC2CCCCC2)=Nc2ccccc2N1Cc1ccccc1` (stereo unspecified): the GI50 in assay [1] was 7.71 µM (inactive); in [16], 2.05 µM (inactive); in assay [2], 10.4 µM (inactive); in assay [3], 5.46 µM (inactive); in assay [4], 4.66 µM (inactive); in [5], 4.51 µM (inactive). The GI50 was 4.75 µM (inactive) in assay [7]; 3.38 µM (inactive) in assay [8]; 3.69 µM (inactive) in assay [9]; 1.49 µM (inactive) in assay [10]; 3.03 µM (inactive) in [11]; 5.85 µM (inactive) in assay [12]. Moreover, the GI50 is 5.41 µM (inactive) in [13], 11.2 µM (inactive) in assay [14] and 12.3 µM (inactive) in [15].
Take `O=C1/C(=C/c2ccccc2)NC(=S)N1CN1CCOCC1`: the GI50 in assay [1] is > 100 µM (inactive); in assay [16], 82.2 µM (inactive); in [2] it was > 100 µM (inactive); in assay [4] it was > 100 µM (inactive); in assay [6], > 100 µM (inactive); in assay [7] it was > 100 µM (inactive). In addition, the GI50 in [8], in [9], in assay [10], in assay [12], in assay [13] and in assay [14] was > 100 µM (inactive) each time. Moreover, the GI50 in assay [15] was > 100 µM (inactive).
For `CCOP(=Nc1ccc(N(C)C)cc1)(OCC)OCC`, the GI50 in assay [16], in assay [2], in assay [3], in assay [4], in assay [6] and in [7] was > 100 µM (inactive) in each case. The GI50 in assay [8], in [9], in assay [10], in assay [11], in assay [12] and in assay [13] was > 100 µM (inactive) each time. Also, the GI50 in assay [14] and in [15] was > 100 µM (inactive) in each case.
In the case of `CC(C)CC(NC(=O)OCc1ccccc1)C(=O)NCCCCC(N)C(=O)NC(CCCCNC(=O)C(CC(C)C)NC(=O)OCc1ccccc1)C(=O)NC(CCCCNC(=O)C(CC(C)C)NC(=O)OCc1ccccc1)C(=O)NC(CCCCNC(=O)C(CC(C)C)NC(=O)OCc1ccccc1)C(=O)NC(CCCCNC(=O)C(CC(C)C)NC(=O)OCc1ccccc1)C(=O)NC(CCCCNC(=O)C(CC(C)C)NC(=O)OCc1ccccc1)C(=O)O` (stereo unspecified), the GI50 in [1], in [16], in assay [2], in assay [4], in assay [5] and in [8] was > 100 µM (inactive) each time. The GI50 in assay [9], in assay [10], in assay [11], in assay [13] and in assay [15] was > 100 µM (inactive) throughout.
Turning to `Cc1nc2cccc(F)c2c(=O)n1C1CCCCNC1=O` (stereo unspecified), the GI50 in assay [1], in [2], in assay [3], in [4], in [5] and in [6] was > 10 µM (inactive) each time. Further, the GI50 in assay [7], in [8], in [9], in [11], in [12] and in assay [13] was > 10 µM (inactive) in each case. Besides, the GI50 in [14] and in [15] was > 10 µM (inactive) in each case.

The values are drawn from ChEMBL document CHEMBL1201862, “PubChem BioAssay data set” (2004).
